Assay: Henry solubility constant Hcp at 293 K (mol/(m3 Pa))
Details: reference: Murphy et al. (1987)

| SMILES | Henry solubility constant Hcp at 293 K |
| --- | --- |
| Clc1ccc(-c2c(Cl)c(Cl)cc(Cl)c2Cl)c(Cl)c1Cl [2,2',3,3',4,5',6'-heptachlorobiphenyl] | 0.3 |
| Clc1cc(Cl)c(Cl)c(-c2ccc(Cl)c(Cl)c2Cl)c1 [2,2',3,3',4,5'-hexachlorobiphenyl] | 0.092 |
| Clc1cc(-c2c(Cl)ccc(Cl)c2Cl)c(Cl)c(Cl)c1Cl [2,2',3,3',4,5,6'-heptachlorobiphenyl] | 0.2 |
| Clc1cc(Cl)c(-c2c(Cl)ccc(Cl)c2Cl)c(Cl)c1Cl [2,2',3,3',4,6,6'-heptachlorobiphenyl] | 0.11 |
| Clc1cccc(-c2c(Cl)cc(Cl)c(Cl)c2Cl)c1Cl [2,2',3,3',4,6-hexachlorobiphenyl] | 0.15 |
| Clc1cccc(-c2ccc(Cl)c(Cl)c2Cl)c1Cl [2,2',3,3',4-pentachlorobiphenyl] | 0.084 |
| Clc1cc(Cl)c(Cl)c(-c2c(Cl)ccc(Cl)c2Cl)c1 [2,2',3,3',5,6'-hexachlorobiphenyl] | 0.07 |
| Clc1cc(Cl)c(Cl)c(-c2cccc(Cl)c2Cl)c1 [2,2',3,3',5-pentachlorobiphenyl] | 0.06 |
| Clc1ccc(Cl)c(-c2c(Cl)ccc(Cl)c2Cl)c1Cl [2,2',3,3',6,6'-hexachlorobiphenyl] | 0.044 |
| Clc1cccc(-c2c(Cl)ccc(Cl)c2Cl)c1Cl [2,2',3,3',6-pentachlorobiphenyl] | 0.057 |
| Clc1cccc(-c2cccc(Cl)c2Cl)c1Cl [2,2',3,3'-tetrachlorobiphenyl] | 0.061 |
| Clc1cc(Cl)c(-c2c(Cl)ccc(Cl)c2Cl)cc1Cl [2,2',3,4',5',6-hexachlorobiphenyl] | 0.067 |
| Clc1cc(Cl)c(-c2cccc(Cl)c2Cl)cc1Cl [2,2',3,4',5'-pentachlorobiphenyl] | 0.066 |
| Clc1cc(Cl)c(-c2c(Cl)c(Cl)cc(Cl)c2Cl)cc1Cl [2,2',3,4',5,5',6-heptachlorobiphenyl] | 0.12 |
| Clc1cc(Cl)c(Cl)c(-c2cc(Cl)c(Cl)cc2Cl)c1 [2,2',3,4',5,5'-hexachlorobiphenyl] | 0.11 |
| Clc1ccc(-c2c(Cl)ccc(Cl)c2Cl)c(Cl)c1 [2,2',3,4',6-pentachlorobiphenyl] | 0.036 |
| Clc1ccc(-c2cccc(Cl)c2Cl)c(Cl)c1 [2,2',3,4'-tetrachlorobiphenyl] | 0.05 |
| Clc1cc(Cl)c(-c2c(Cl)cc(Cl)c(Cl)c2Cl)cc1Cl [2,2',3,4,4',5',6-heptachlorobiphenyl] | 0.15 |
| Clc1cc(Cl)c(-c2ccc(Cl)c(Cl)c2Cl)cc1Cl [2,2',3,4,4',5'-hexachlorobiphenyl] | 0.13 |
| Clc1ccc(-c2cc(Cl)c(Cl)c(Cl)c2Cl)c(Cl)c1 [2,2',3,4,4',5-hexachlorobiphenyl] | 0.15 |
| Clc1ccc(-c2ccc(Cl)c(Cl)c2Cl)c(Cl)c1 [2,2',3,4,4'-pentachlorobiphenyl] | 0.06 |

| SMILES | Henry solubility constant Hcp at 293 K |
| --- | --- |
| Clc1ccc(Cl)c(-c2c(Cl)cc(Cl)c(Cl)c2Cl)c1 [2,2',3,4,5',6-hexachlorobiphenyl] | 0.07 |
| Clc1ccc(Cl)c(-c2cc(Cl)c(Cl)c(Cl)c2Cl)c1 [2,2',3,4,5,5'-hexachlorobiphenyl] | 0.1 |
| Clc1ccccc1-c1ccc(Cl)c(Cl)c1Cl [2,2',3,4-tetrachlorobiphenyl] | 0.049 |
| Clc1ccc(Cl)c(-c2c(Cl)ccc(Cl)c2Cl)c1 [2,2',3,5',6-pentachlorobiphenyl] | 0.05 |
| Clc1ccc(Cl)c(-c2cccc(Cl)c2Cl)c1 [2,2',3,5'-tetrachlorobiphenyl] | 0.052 |
| Clc1cccc(-c2c(Cl)cccc2Cl)c1Cl [2,2',3,6'-tetrachlorobiphenyl] | 0.038 |
| Clc1ccccc1-c1cccc(Cl)c1Cl [2,2',3-trichlorobiphenyl] | 0.041 |
| Clc1cc(Cl)c(-c2cc(Cl)c(Cl)cc2Cl)cc1Cl [2,2',4,4',5,5'-hexachlorobiphenyl] | 0.1 |
| Clc1ccc(-c2cc(Cl)c(Cl)cc2Cl)c(Cl)c1 [2,2',4,4',5-pentachlorobiphenyl] | 0.046 |
| Clc1ccc(-c2cc(Cl)ccc2Cl)c(Cl)c1 [2,2',4,5'-tetrachlorobiphenyl] | 0.036 |
| Clc1ccc(Cl)c(-c2cc(Cl)c(Cl)cc2Cl)c1 [2,2',4,5,5'-pentachlorobiphenyl] | 0.055 |
| Clc1cc(Cl)c(-c2ccccc2Cl)cc1Cl [2,2',4,5-tetrachlorobiphenyl] | 0.039 |
| Clc1ccc(-c2ccccc2Cl)c(Cl)c1 [2,2',4-trichlorobiphenyl] | 0.03 |
| Clc1ccc(Cl)c(-c2cc(Cl)ccc2Cl)c1 [2,2',5,5'-tetrachlorobiphenyl] | 0.041 |
| Clc1ccc(Cl)c(-c2ccccc2Cl)c1 [2,2',5-trichlorobiphenyl] | 0.033 |
| Clc1ccccc1-c1c(Cl)cccc1Cl [2,2',6-trichlorobiphenyl] | 0.033 |
| Clc1ccccc1-c1ccccc1Cl [2,2'-dichlorobiphenyl] | 0.033 |
| Clc1ccccc1-c1cc(Cl)c(Cl)c(Cl)c1 [2,3',4',5'-tetrachlorobiphenyl] | 0.077 |
| Clc1ccc(Cl)c(-c2cc(Cl)c(Cl)c(Cl)c2)c1 [2,3',4',5,5'-pentachlorobiphenyl] | 0.19 |
| Clc1ccc(Cl)c(-c2ccc(Cl)c(Cl)c2)c1 [2,3',4',5-tetrachlorobiphenyl] | 0.052 |
| Clc1ccc(-c2ccccc2Cl)cc1Cl [2,3',4'-trichlorobiphenyl] | 0.044 |

| SMILES | Henry solubility constant Hcp at 293 K |
| --- | --- |
| Clc1ccc(-c2cc(Cl)c(Cl)cc2Cl)cc1Cl [2,3',4,4',5-pentachlorobiphenyl] | 0.12 |
| Clc1ccc(-c2ccc(Cl)c(Cl)c2)c(Cl)c1 [2,3',4,4'-tetrachlorobiphenyl] | 0.049 |
| Clc1cccc(-c2ccc(Cl)cc2Cl)c1 [2,3',4-trichlorobiphenyl] | 0.024 |
| Clc1cccc(-c2cc(Cl)ccc2Cl)c1 [2,3',5-trichlorobiphenyl] | 0.029 |
| Clc1cccc(-c2c(Cl)cccc2Cl)c1 [2,3',6-trichlorobiphenyl] | 0.035 |
| Clc1cccc(-c2ccccc2Cl)c1 [2,3'-dichlorobiphenyl] | 0.032 |
| Clc1cc(-c2cccc(Cl)c2Cl)cc(Cl)c1Cl [2,3,3',4',5'-pentachlorobiphenyl] | 0.16 |
| Clc1cc(Cl)c(Cl)c(-c2ccc(Cl)c(Cl)c2)c1 [2,3,3',4',5-pentachlorobiphenyl] | 0.17 |
| Clc1ccc(-c2c(Cl)ccc(Cl)c2Cl)cc1Cl [2,3,3',4',6-pentachlorobiphenyl] | 0.093 |
| Clc1ccc(-c2cccc(Cl)c2Cl)cc1Cl [2,3,3',4'-tetrachlorobiphenyl] | 0.061 |
| Clc1ccc(-c2c(Cl)cc(Cl)c(Cl)c2Cl)cc1Cl [2,3,3',4,4',6-hexachlorobiphenyl] | 0.23 |
| Clc1ccc(-c2cc(Cl)cc(Cl)c2Cl)cc1 [2,3,4',5-tetrachlorobiphenyl] | 0.034 |
| Clc1ccc(-c2c(Cl)ccc(Cl)c2Cl)cc1 [2,3,4',6-tetrachlorobiphenyl] | 0.058 |
| Clc1ccc(-c2ccc(Cl)c(Cl)c2Cl)cc1 [2,3,4,4'-tetrachlorobiphenyl] | 0.061 |
| Clc1ccc(Cl)c(-c2ccccc2)c1Cl [2,3,6-trichlorobiphenyl] | 0.031 |
| Clc1ccc(-c2cc(Cl)ccc2Cl)cc1 [2,4',5-trichlorobiphenyl] | 0.037 |
| Clc1ccc(-c2ccccc2Cl)cc1 [2,4'-dichlorobiphenyl] | 0.035 |
| Clc1ccc(-c2ccccc2)c(Cl)c1 [2,4-dichlorobiphenyl] | 0.027 |
| Clc1ccc(-c2ccc(Cl)c(Cl)c2)cc1 [3,4,4'-trichlorobiphenyl] | 0.065 |

From Sander's compilation of Henry's law constants (doi:10.1021/es00156a005)
